Experimental data as given in patent US12612386B2, “Heteroaryl-triazole compounds as pesticides” (Bayer Aktiengesellschaft, priority 2020, dated 2026).

Each compound was assayed on cattle tick larvae (Rhipicephalus microplus), strain Parkhurst, resistant against synthetic pyrethroids (assay: Rhipicephalus (Boophilus) microplus in-vitro contact test, larval cattle tick). Conditions: 5 μg/cm^2 (=500 g/ha), after 48 hours.
Type: in vivo
Description: Rhipicephalus (Boophilus) Microplus—In-Vitro Contact Tests Larval Cattle Tick (Strain Parkhurst, Resistant Against Synthetic Pyrethroids)
(§1) 9 mg compound is solved in 1 mL acetone and diluted with acetone to the desired concentration. 250 μL of the test solution is filled in 25 mL glass test tubes and homogeneously distributed on the inner walls by rotation and tilting on a shaking device (2 h at 30 rpm). With a compound concentration of 900 ppm, an inner surface of 44.7 cm^2 and a homogeneous distribution, a dose of 5 μg/cm^2 is achieved.
After the solvent has evaporated, each test tube is filled with 20-50 cattle tick larvae (Rhipicephalus microplus), closed with a perforated lid and incubated in a horizontal position at 85% relative humidity and 27° C. in an incubator. After 48 hours efficacy is determined. The larvae are patted on the ground of the tubes and negative geotactic behavior is recorded.
An efficacy of 100% means all larvae are dead or moribund; 0% means no larvae are dead or moribund.

Row | Structure (SMILES) | efficacy (larvae dead or moribund)
1 | CC(C)N(C)C(=O)c1cc(-n2ncnc2[C@H](C)NC(=O)c2cc(OC(F)(F)F)cc(C3CC3)c2)ncn1 [I-57] | 100%
2 | CCN(C)C(=O)c1cc(-n2nc(C)nc2[C@H](C)NC(=O)c2cc(C(F)(F)F)cc(C(F)(F)F)c2)ncn1 [I-63] | 100%
3 | CCN(C)C(=O)c1cc(-n2ncnc2[C@H](C)NC(=O)c2cc(C(F)(F)F)cc(C(F)(F)F)c2)ncn1 [I-64] | 100%
4 | CNC(=O)c1cc(-n2nc(C)nc2[C@H](C)NC(=O)c2cc(Br)cc(OC(F)(F)F)c2)ncn1 [I-65] | 100%
5 | CNC(=O)c1cc(-n2ncnc2[C@H](C)NC(=O)c2cc(OC(F)F)cc(C3CC3)c2)ncn1 [I-67] | 100%

Each compound was assayed on adult cat fleas (Ctenocephalides felis) (assay: Ctenocephalides felis in-vitro contact test, adult cat flea). Conditions: 5 μg/cm^2 (=500 g/ha), after 48 hours.
Type: in vivo
Description: Ctenocephalides felis—In-Vitro Contact Tests Adult Cat Flea
as §1
(§2) After the solvent has evaporated, each test tube is filled with 5-10 adult cat fleas (Ctenocephalides felis), closed with a perforated lid and incubated in a lying position at room temperature and relative humidity. After 48 hours efficacy is determined. The fleas are patted on the ground of the tubes and are incubated on a heating plate at 45-50° C. for at most 5 minutes. Immotile or uncoordinated moving fleas, which are not able to escape the heat by climbing upwards, are marked as dead or moribund.
An efficacy of 100% means all fleas are dead or moribund; 0% means no fleas are dead or moribund.

Row | Structure (SMILES) | efficacy (fleas dead or moribund)
6 | CC(C)N(C)C(=O)c1cc(-n2ncnc2[C@H](C)NC(=O)c2cc(OC(F)(F)F)cc(C3CC3)c2)ncn1 [I-57] | 100%
7 | CCN(C)C(=O)c1cc(-n2nc(C)nc2[C@H](C)NC(=O)c2cc(C(F)(F)F)cc(C(F)(F)F)c2)ncn1 [I-63] | 100%
8 | CCN(C)C(=O)c1cc(-n2ncnc2[C@H](C)NC(=O)c2cc(C(F)(F)F)cc(C(F)(F)F)c2)ncn1 [I-64] | 100%
9 | CNC(=O)c1cc(-n2nc(C)nc2[C@H](C)NC(=O)c2cc(Br)cc(OC(F)(F)F)c2)ncn1 [I-65] | 100%
10 | CNC(=O)c1cc(-n2ncnc2[C@H](C)NC(=O)c2cc(OC(F)F)cc(C3CC3)c2)ncn1 [I-67] | 100%

These compounds were tested on adult brown dog ticks (Rhipicephalus sanguineus) (assay: Rhipicephalus sanguineus in-vitro contact test, adult brown dog ticks). Conditions: 48 h, read-out: efficacy (ticks dead or moribund).
Type: in vivo
Description: Rhipicephalus sanguineus—In-Vitro Contact Tests with Adult Brown Dog Ticks
as §1
as §2, with “brown dog ticks (Rhipicephalus sanguineus),” for “cat fleas (Ctenocephalides felis),”, “ticks” for “fleas”, “ticks,” for “fleas,”
An efficacy of 100% means all ticks are dead or moribund; 0% means no ticks are dead or moribund.

Row | Structure (SMILES) | pest or weed control at 5 µg/cm2, 500 g/ha
11 | CC(C)N(C)C(=O)c1cc(-n2ncnc2[C@H](C)NC(=O)c2cc(OC(F)(F)F)cc(C3CC3)c2)ncn1 [I-57] | 100%
12 | CCN(C)C(=O)c1cc(-n2nc(C)nc2[C@H](C)NC(=O)c2cc(C(F)(F)F)cc(C(F)(F)F)c2)ncn1 [I-63] | 100%
13 | CCN(C)C(=O)c1cc(-n2ncnc2[C@H](C)NC(=O)c2cc(C(F)(F)F)cc(C(F)(F)F)c2)ncn1 [I-64] | 100%
14 | CNC(=O)c1cc(-n2nc(C)nc2[C@H](C)NC(=O)c2cc(Br)cc(OC(F)(F)F)c2)ncn1 [I-65] | 100%
15 | CNC(=O)c1cc(-n2ncnc2[C@H](C)NC(=O)c2cc(OC(F)F)cc(C3CC3)c2)ncn1 [I-67] | 100%

Each compound was assayed on larvae of the banded cucumber beetle (Diabrotica balteata) (assay: Diabrotica balteata spray test). Conditions: 168 h, 100 g/ha (=32 μg/well), after 7 days, read-out: efficacy (seedling growth).
Type: in vivo
Outline: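 Germinated wheat seeds on agar (5 per well) were sprayed with compound formulated in acetone/DMF and diluted in water with 1000 ppm emulsifier. Each unit was then infested with 10–20 larvae. Efficacy % was scored after 7 days as seedling growth relative to an untreated, uninfested control (100% = normal growth).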

Row | Structure (SMILES) | pest or weed control at 32 µg/disc, 100 g/ha
16 | CCN(C)C(=O)c1cc(-n2nc(C)nc2[C@H](C)NC(=O)c2cc(C(F)(F)F)cc(C(F)(F)F)c2)ncn1 [I-63] | 100%
17 | CCN(C)C(=O)c1cc(-n2ncnc2[C@H](C)NC(=O)c2cc(C(F)(F)F)cc(C(F)(F)F)c2)ncn1 [I-64] | 100%
18 | CNC(=O)c1cc(-n2nc(C)nc2[C@H](C)NC(=O)c2cc(Br)cc(OC(F)(F)F)c2)ncn1 [I-65] | 100%
19 | CNC(=O)c1cc(-n2ncnc2[C@H](C)NC(=O)c2cc(OC(F)F)cc(C3CC3)c2)ncn1 [I-67] | 100%

The compounds below were run on green peach aphid (Myzus persicae) (assay: Myzus persicae spray test (MYZUPE)). Conditions: 120 h, 100 g/ha, after 5 days.
Type: in vivo
Outline: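 Chinese cabbage leaf disks infested with all instars of Myzus persicae were sprayed with compound formulated in acetone/dimethylformamide and diluted in water with 1000 ppm alkylarylpolyglycol ether emulsifier. Percent mortality was scored after 5 days, 100% meaning all aphids killed.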

Row | Structure (SMILES) | mortality at 100 g/ha
20 | CCN(C)C(=O)c1cc(-n2ncnc2[C@H](C)NC(=O)c2cc(C(F)(F)F)cc(C(F)(F)F)c2)ncn1 [I-64] | 90%
21 | CNC(=O)c1cc(-n2nc(C)nc2[C@H](C)NC(=O)c2cc(Br)cc(OC(F)(F)F)c2)ncn1 [I-65] | 90%
22 | CNC(=O)c1cc(-n2ncnc2[C@H](C)NC(=O)c2cc(OC(F)F)cc(C3CC3)c2)ncn1 [I-67] | 90%

These compounds were tested on larvae of the southern green stink bug (Nezara viridula) (assay: whole plant or invertebrate). Conditions: 96 h.
Type: in vivo
Outline: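 Compound in acetone/DMF was diluted in water with 1000 ppm alkylarylpolyglycol ether emulsifier. Barley plants were sprayed with it, then infested with Nezara viridula larvae. Mortality % was scored after 4 days (100% = all killed).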

Row | Structure (SMILES) | mortality at 500 g/ha
23 | CCN(C)C(=O)c1cc(-n2ncnc2[C@H](C)NC(=O)c2cc(C(F)(F)F)cc(C(F)(F)F)c2)ncn1 [I-64] | 100%
24 | CNC(=O)c1cc(-n2nc(C)nc2[C@H](C)NC(=O)c2cc(Br)cc(OC(F)(F)F)c2)ncn1 [I-65] | 100%
25 | CNC(=O)c1cc(-n2ncnc2[C@H](C)NC(=O)c2cc(OC(F)F)cc(C3CC3)c2)ncn1 [I-67] | 100%

What follows are compounds tested on brown planthopper (Nilaparvata lugens) (assay: Nilaparvata lugens spray test). Conditions: 96 h.
Type: in vivo
Description: Nilaparvata lugens—Spray Test
• Solvent: 78.0 parts by weight of acetone • 1.5 parts by weight of dimethylformamide • Emulsifier: alkylarylpolyglycol ether
To produce a suitable preparation of active compound, 1 part by weight of active compound is mixed with the stated amount of solvents and is diluted with water, containing an emulsifier concentration of 1000 ppm, to the desired concentration. Further test concentrations are prepared by dilution with emulsifier containing water.
Rice plants (Oryza sativa) are sprayed with a preparation of the active ingredient of the desired concentration and the plants are infested with the brown planthopper (Nilaparvata lugens).
After 4 days mortality in % is determined. 100% means all planthoppers have been killed and 0% means none of the planthoppers have been killed.

Row | Structure (SMILES) | mortality at 500 g/ha
26 | CC(C)N(C)C(=O)c1cc(-n2ncnc2[C@H](C)NC(=O)c2cc(OC(F)(F)F)cc(C3CC3)c2)ncn1 [I-57] | 100%
27 | CCN(C)C(=O)c1cc(-n2nc(C)nc2[C@H](C)NC(=O)c2cc(C(F)(F)F)cc(C(F)(F)F)c2)ncn1 [I-63] | 100%
28 | CCN(C)C(=O)c1cc(-n2ncnc2[C@H](C)NC(=O)c2cc(C(F)(F)F)cc(C(F)(F)F)c2)ncn1 [I-64] | 100%
29 | CNC(=O)c1cc(-n2ncnc2[C@H](C)NC(=O)c2cc(OC(F)F)cc(C3CC3)c2)ncn1 [I-67] | 100%

What follows are compounds tested on fall armyworm larvae (Spodoptera frugiperda) (assay: whole plant or invertebrate). Conditions: 168 h.
Type: in vivo
Outline: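 Maize leaf sections sprayed with compound in acetone/DMF with alkylarylpolyglycol ether emulsifier diluted in water, then infested with fall armyworm larvae once dry. Mortality (%) scored after 7 days; 100% = all caterpillars killed.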

Row | Structure (SMILES) | mortality at 100 g/ha
30 | CC(C)N(C)C(=O)c1cc(-n2ncnc2[C@H](C)NC(=O)c2cc(OC(F)(F)F)cc(C3CC3)c2)ncn1 [I-57] | 100%
31 | CCN(C)C(=O)c1cc(-n2nc(C)nc2[C@H](C)NC(=O)c2cc(C(F)(F)F)cc(C(F)(F)F)c2)ncn1 [I-63] | 100%
32 | CCN(C)C(=O)c1cc(-n2ncnc2[C@H](C)NC(=O)c2cc(C(F)(F)F)cc(C(F)(F)F)c2)ncn1 [I-64] | 100%
33 | CNC(=O)c1cc(-n2nc(C)nc2[C@H](C)NC(=O)c2cc(Br)cc(OC(F)(F)F)c2)ncn1 [I-65] | 100%
34 | CNC(=O)c1cc(-n2ncnc2[C@H](C)NC(=O)c2cc(OC(F)F)cc(C3CC3)c2)ncn1 [I-67] | 100%
